Data from PubChem BioAssay AID330 (DTP/NCI, 2004).
Several values for one entry are separate records, joined by “and”; a condition that tells them apart may be missing. Equal entries are not always repeated. Toxic doses and inconclusive results are not listed.

System: P388 leukemia ip, CD2F1 mice, survival T/C
Experiment: NCI In Vivo Anticancer Drug Screen. Data for tumor model P388 Leukemia (intraperitoneal) in CD2F1 (CDF1) mice
Conditions: endpoint: median survival time, higher = longer survival
Outline: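 Mice carrying the transplanted tumor received test compound or vehicle. Survival was recorded in each group, and the value is the treated-group measurement divided by that of the vehicle-treated control group.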

[1] = dose: 100.0 mg/kg/injection, schedule: Q01DX001 (ip), vehicle: saline with Tween-80
[2] = dose: 200.0 mg/kg/injection, schedule: Q01DX001 (ip), vehicle: saline with Tween-80
[3] = dose: 400.0 mg/kg/injection, schedule: Q01DX001 (ip), vehicle: saline with Tween-80
[4] = dose: 6.25 mg/kg/injection, schedule: Q01DX009 (ip), vehicle: saline
[5] = dose: 50.0 mg/kg/injection, schedule: Q01DX009 (ip), vehicle: saline
[6] = dose: 50.0 mg/kg/injection, schedule: Q01DX009 (ip), vehicle: saline with Tween-80
[7] = dose: 100.0 mg/kg/injection, schedule: Q01DX009 (ip), vehicle: saline with Tween-80
[8] = dose: 200.0 mg/kg/injection, schedule: Q01DX009 (ip), vehicle: saline with Tween-80
[9] = dose: 50.0 mg/kg/injection, schedule: Q01DX005 (ip), vehicle: Klucel (hydroxypropylcellulose) (HPC)
[10] = dose: 100.0 mg/kg/injection, schedule: Q01DX005 (ip), vehicle: Klucel (hydroxypropylcellulose) (HPC)
[11] = dose: 200.0 mg/kg/injection, schedule: Q01DX005 (ip), vehicle: Klucel (hydroxypropylcellulose) (HPC)
[12] = dose: 25.0 mg/kg/injection, schedule: Q01DX009 (ip), vehicle: saline with Tween-80
[13] = dose: 60.0 mg/kg/injection, schedule: Q01DX005 (ip), vehicle: saline
[14] = dose: 120.0 mg/kg/injection, schedule: Q01DX005 (ip), vehicle: saline
[15] = dose: 240.0 mg/kg/injection, schedule: Q01DX005 (ip), vehicle: saline
[16] = dose: 60.0 mg/kg/injection, schedule: Q01DX005 (ip), vehicle: saline with Tween-80
[17] = dose: 50.0 mg/kg/injection, schedule: Q01DX005 (ip), vehicle: saline with Tween-80
[18] = dose: 100.0 mg/kg/injection, schedule: Q01DX005 (ip), vehicle: saline with Tween-80
[19] = dose: 200.0 mg/kg/injection, schedule: Q01DX005 (ip), vehicle: saline with Tween-80

`CCC(c1ccc(OC)cc1)C(NCC(=O)N/N=C1\C[C@@H]2[C@H](CC[C@]3(C)[C@@H](O)CC[C@@H]23)c2ccc(O)cc21)c1ccc(OC)cc1` (stereo not given in full) was tested, and the T/C [1] was 100 % of control, the T/C [2] was 99 % of control and the T/C [3] was 99 % of control.
`CCCCCCCCCCCCCCCC[N+]1(CC)CCCCCC1` was tested, and the T/C (dose: 0.04 mg/kg/injection, schedule: Q01DX009 (ip), vehicle: saline) was 110 % of control, the T/C (dose: 0.09 mg/kg/injection, schedule: Q01DX009 (ip), vehicle: saline) was 103 % of control and 88 % of control and the T/C (dose: 0.19 mg/kg/injection, schedule: Q01DX009 (ip), vehicle: saline) was 89 % of control.
In the case of `CO[C@@]12[C@H](COC(N)=O)C3=C(C(=O)C(C)=C(N)C3=O)N1C[C@H]1[C@@H]2N1C(=O)[C@@H]1N2C(=O)[C@@H](NC(=O)Cc3ccccc3)[C@H]2SC1(C)C`, the T/C [4] is reported as 116 % of control, the T/C (dose: 12.5 mg/kg/injection, schedule: Q01DX009 (ip), vehicle: saline) is reported as 155 % of control and the T/C (dose: 25.0 mg/kg/injection, schedule: Q01DX009 (ip), vehicle: saline) is reported as 155 % of control. For the same compound, the T/C [5] was 165 % of control.
For `COC(=O)C1(C)CCCC2(C)c3cc(OC)ccc3C(=O)C(Br)C12` (stereo not given), the T/C [6] was 103 % of control, the T/C [7] was 100 % of control and the T/C [8] was 112 % of control.
`COc1ccc(-c2cc(-c3ccccc3)cc(-c3ccc(OC)cc3)n2)cc1` was tested, and the T/C [9] was 98 % of control, the T/C [10] was 94 % of control and the T/C [11] was 92 % of control.
`CCOC(=O)c1sc(N)c(C(=O)OCC)c1C` was tested, and the T/C [7] was 86 % of control.
`CCOC(=O)CCc1nc(C)ncc1C(=O)OCC` was tested, and the T/C (dose: 12.5 mg/kg/injection, schedule: Q01DX009 (ip), vehicle: saline with Tween-80) was 104 % of control, the T/C [12] was 106 % of control and the T/C [6] was 100 % of control. The T/C [5] was 91 % of control and the T/C (dose: 200.0 mg/kg/injection, schedule: Q01DX009 (ip), vehicle: saline) was 87 % of control.
For `CCCCCCCCCCCCCCOc1ccc(C(C)=O)o1`, the T/C [6] was 95 % of control and the T/C [8] was 100 % of control.
With `O=c1c2sc3ccccc3c2ncn1C1CCCCC1` the T/C [9] was 98 % of control, the T/C [10] was 100 % of control and the T/C [11] was 93 % of control.
With `NC(=O)C(=O)c1cc(Cl)c(Cl)c(Cl)c1Cl` the T/C [12] was 105 % of control, the T/C [6] was 99 % of control and the T/C [7] was 96 % of control.
With `C=C1C(=O)[C@]23C[C@H]1CC[C@H]2[C@@]12CO[C@@H](O)[C@@H]1C(C)(C)[C@@H](O)C[C@@H]2OC3=O` the T/C (dose: 3.8 mg/kg/injection, schedule: Q01DX008 (ip), vehicle: saline with Tween-80) was 100 % of control, the T/C (dose: 7.5 mg/kg/injection, schedule: Q01DX008 (ip), vehicle: saline with Tween-80) was 102 % of control and the T/C (dose: 7.5 mg/kg/injection, schedule: Q01DX009 (ip), vehicle: saline with Tween-80) was 113 % of control. For the same compound, the T/C (dose: 15.0 mg/kg/injection, schedule: Q01DX008 (ip), vehicle: saline with Tween-80) was 94 % of control, the T/C (dose: 15.0 mg/kg/injection, schedule: Q01DX009 (ip), vehicle: saline with Tween-80) was 123 % of control and the T/C (dose: 30.0 mg/kg/injection, schedule: Q01DX008 (ip), vehicle: saline with Tween-80) was 102 % of control. For the same compound, the T/C (dose: 30.0 mg/kg/injection, schedule: Q01DX009 (ip), vehicle: saline with Tween-80) was 117 % of control and the T/C (dose: 60.0 mg/kg/injection, schedule: Q01DX009 (ip), vehicle: saline with Tween-80) was 113 % of control.
`NC(=O)NN=C(C(F)(F)F)C(F)(F)F` was tested, and the T/C [6] was 110 % of control and the T/C [7] was 101 % of control.
In the case of `C[Si](C)(C)CNC(=O)OCc1ccccc1`, the T/C [13] is reported as 97 % of control, the T/C [14] is reported as 95 % of control and the T/C [15] is reported as 95 % of control.
`CCCCCCCCN1CCCN(/N=C/c2c3c(O)c4c(O)c(C)c5c(c4c2O)C(=O)C(C)(O/C=C/C(OC)C(C)C(OC(C)=O)C(C)C(O)C(C)C(O)C(C)/C=C/C=C(C)C(=O)N3)O5)CC1` (stereo not given) was tested, and the T/C [6] was 97 % of control, the T/C [7] was 100 % of control and the T/C [8] was 91 % of control.
`O=c1oc(-c2ccccc2)nc2c1CCS2` was tested, and the T/C [9] was 93 % of control, the T/C [10] was 97 % of control and the T/C [11] was 90 % of control.
`Nc1nc(Nc2ccc(C3=NCCN3)cc2)nc(Nc2ccc(C3=NCCN3)cc2)n1` was tested, and the T/C [4] was 122 % of control and the T/C (dose: 6.25 mg/kg/injection, schedule: Q01DX009 (ip), vehicle: suspension in saline) was 108 % of control.
`Cc1c([O-])on[n+]1Cc1ccccc1` was tested, and the T/C [16] was 102 % of control.
`CCOC(=O)C(C(=O)OCC)n1c(=O)c2c(ncn2C)n(C)c1=O` was tested, and the T/C (dose: 100.0 mg/kg/injection, schedule: Q01DX001 (ip), vehicle: Klucel (hydroxypropylcellulose) (HPC)) was 110 % of control, the T/C (dose: 200.0 mg/kg/injection, schedule: Q01DX001 (ip), vehicle: Klucel (hydroxypropylcellulose) (HPC)) was 101 % of control and the T/C (dose: 400.0 mg/kg/injection, schedule: Q01DX001 (ip), vehicle: Klucel (hydroxypropylcellulose) (HPC)) was 105 % of control.
For `CN1CCN(Cc2oc(CO)cc(=O)c2O)CC1`, the T/C [13] was 103 % of control, the T/C [14] was 92 % of control and the T/C [15] was 104 % of control.
In the case of `COc1ccc(C2[C@@H]3CCc4ccccc4C3=NN2C(C)=O)cc1` (stereo not given in full), the T/C [17] is reported as 93 % of control, the T/C [18] is reported as 91 % of control and the T/C [19] is reported as 87 % of control.
With `COc1cc(OC)c2c(O)c3c(=O)cc(C)oc3c(-c3c4cc(OC)cc(OC)c4c(O)c4c(=O)cc(C)oc34)c2c1` the T/C (dose: 12.5 mg/kg/injection, schedule: Q01DX005 (ip), vehicle: Klucel (hydroxypropylcellulose) (HPC)) was 114 % of control, the T/C (dose: 25.0 mg/kg/injection, schedule: Q01DX005 (ip), vehicle: Klucel (hydroxypropylcellulose) (HPC)) was 100 % of control and the T/C [9] was 96 % of control. The T/C [10] was 100 % of control, the T/C [11] was 90 % of control and the T/C (dose: 400.0 mg/kg/injection, schedule: Q01DX005 (ip), vehicle: Klucel (hydroxypropylcellulose) (HPC)) was 97 % of control.
In the case of `O=C1/C(=C/c2ccc(O)c(O)c2)Cc2ccccc21`, the T/C [12] is reported as 102 % of control, the T/C [6] is reported as 103 % of control and the T/C [7] is reported as 105 % of control. The T/C [8] was 103 % of control.
For `COC(=O)C1(O)OCC(O)C(O)C1O` (stereo not given), the T/C (dose: 50.0 mg/kg/injection, schedule: Q01DX005 (ip), vehicle: saline) was 100 % of control, the T/C (dose: 100.0 mg/kg/injection, schedule: Q01DX005 (ip), vehicle: saline) was 105 % of control and the T/C (dose: 200.0 mg/kg/injection, schedule: Q01DX005 (ip), vehicle: saline) was 100 % of control.
`CN(CCOC(N)=O)CCOC(N)=O` was tested, and the T/C [16] was 92 % of control, the T/C (dose: 120.0 mg/kg/injection, schedule: Q01DX005 (ip), vehicle: saline with Tween-80) was 97 % of control and the T/C (dose: 240.0 mg/kg/injection, schedule: Q01DX005 (ip), vehicle: saline with Tween-80) was 95 % of control.
For `CC(=O)C1C(=O)OC(C)=C(C(=O)O)C1=O` (stereo not given), the T/C (dose: 50.0 mg/kg/injection, schedule: Q04DX003 (ip), vehicle: saline with Tween-80) was 109 % of control, the T/C (dose: 100.0 mg/kg/injection, schedule: Q04DX003 (ip), vehicle: saline with Tween-80) was 109 % of control and the T/C (dose: 200.0 mg/kg/injection, schedule: Q04DX003 (ip), vehicle: saline with Tween-80) was 100 % of control.
With `O=C1c2ccccc2-c2nsc3c(C(Br)Br)ccc1c23` the T/C [9] was 99 % of control, the T/C [10] was 87 % of control and the T/C [11] was 91 % of control.
For `CCCCCCCOCC(=O)O`, the T/C [6] was 100 % of control and the T/C [7] was 94 % of control.
`c1cn(C23CC4CC(CC(C4)C2)C3)cn1` was tested, and the T/C (dose: 25.0 mg/kg/injection, schedule: Q01DX001 (ip), vehicle: Klucel (hydroxypropylcellulose) (HPC)) was 97 % of control.
For `CCN(CC)C(=O)Nc1ccc(O)c(C(=O)O)c1`, the T/C [1] was 100 % of control, the T/C [2] was 100 % of control and the T/C [3] was 100 % of control.
With `O=C(NC(=NC(=Nc1ccccc1)c1ccccc1)c1ccccc1)c1ccccc1` the T/C [6] was 99 % of control, the T/C [7] was 102 % of control and the T/C [8] was 99 % of control.
For `CCOC(=O)C(=O)C(C(=O)c1ccccn1)c1nc2n(c1O)C(=N)N=N2` (stereo not given), the T/C [17] was 102 % of control, the T/C [18] was 94 % of control and the T/C [19] was 87 % of control.
In the case of `CCC(C)(C)N=C(Nc1cccnc1)Nc1ncccn1`, the T/C (dose: 100.0 mg/kg/injection, schedule: Q04DX003 (ip), vehicle: saline) is reported as 101 % of control and the T/C (dose: 200.0 mg/kg/injection, schedule: Q04DX003 (ip), vehicle: saline) is reported as 92 % of control.
In the case of `COc1cc(/C=C/C=C(C(=O)O)C(=O)O)ccc1OCc1ccccc1`, the T/C [9] is reported as 100 % of control, the T/C [10] is reported as 98 % of control and the T/C [11] is reported as 92 % of control.
